The subject of this assay is Swiss mice, Sarcoma 180 sc, mean tumor weight T/C. Put plainly: NCI In Vivo Anticancer Drug Screen. Data for tumor model Sarcoma 180 (subcutaneous) in Swiss mice. The conditions noted are these: endpoint: mean tumor weight, higher = larger tumour. On the procedure: The antitumor activity of compounds was measured in mice bearing transplantable tumors. Survival or tumor size were measured and the results are expressed as the measurement made in the treated group (T) divided by the measurement made in the vehicle treated control group (C). The tumor model used in this assay is Sarcoma 180 (subcutaneous) in Swiss mice

Where [1] appears, read: dose: 50.0 mg/kg/injection, schedule: Q01DX007 (ip), vehicle: saline.
[2] abbreviates: dose: 200.0 mg/kg/injection, schedule: Q01DX007 (ip), vehicle: saline.
[3] abbreviates: dose: 100.0 mg/kg/injection, schedule: Q01DX007 (ip), vehicle: water.
Where [4] appears, read: dose: 200.0 mg/kg/injection, schedule: Q01DX007 (ip), vehicle: water.

Each structure is given as a SMILES string.

Our source for the T/C values is PubChem BioAssay AID342 (DTP/NCI, 2004).

For orientation: T/C means the result in the treated group divided by that in the control group, in per cent. `NN1CCCC1`: the T/C was 86 % of control (dose: 33.0 mg/kg/injection, schedule: Q01DX007 (ip), vehicle: carboxymethylcellulose (CMC)); 161 % of control (dose: 33.0 mg/kg/injection, schedule: Q01DX007 (ip), vehicle: saline); 71 % of control (dose: 50.0 mg/kg/injection, schedule: Q01DX007 (ip), vehicle: carboxymethylcellulose (CMC)); 179 % of control under setting [1]; 20 % of control (dose: 75.0 mg/kg/injection, schedule: Q01DX007 (ip), vehicle: carboxymethylcellulose (CMC)); 86 % of control (dose: 75.0 mg/kg/injection, schedule: Q01DX007 (ip), vehicle: saline). The T/C reads like this: (dose: 113.0 mg/kg/injection, schedule: Q01DX007 (ip), vehicle: saline) 70 % of control; (dose: 133.0 mg/kg/injection, schedule: Q01DX007 (ip), vehicle: saline) 55 % of control; under setting [2], 36 % of control.
As to `Cc1[nH]ccc2c(C)c3nc4ccccc4c3cc12`, the T/C by setting is: (dose: 25.0 mg/kg/injection, schedule: Q01DX007 (ip), vehicle: water) 171 % of control; (dose: 50.0 mg/kg/injection, schedule: Q01DX007 (ip), vehicle: water) 122 % of control; under setting [3], 116 % of control; under setting [4], 42 % of control.
Consider `O=[N+]([O-])c1cccc2nsnc12`, for which the T/C runs as follows: (dose: 12.5 mg/kg/injection, schedule: Q01DX007 (ip), vehicle: carboxymethylcellulose (CMC)) 114 % of control; (dose: 25.0 mg/kg/injection, schedule: Q01DX007 (ip), vehicle: carboxymethylcellulose (CMC)) 174 % of control.
For `CO[C@@]12[C@H](COC(N)=O)C3=C(C(=O)C(C)=C(N)C3=O)N1C[C@@H]1N[C@@H]12`, the T/C (dose: 0.12 mg/kg/injection, schedule: Q#A X014 (ip), vehicle: carboxymethylcellulose (CMC)) is 113 % of control; the T/C (dose: 0.25 mg/kg/injection, schedule: Q#A X014 (ip), vehicle: carboxymethylcellulose (CMC)) was 73 % of control; the T/C (dose: 0.5 mg/kg/injection, schedule: Q#A X014 (ip), vehicle: carboxymethylcellulose (CMC)) was 57 % of control; the T/C (dose: 1.5 mg/kg/injection, schedule: Q#A X014 (ip), vehicle: carboxymethylcellulose (CMC)) was 39 % of control; the T/C (dose: 2.0 mg/kg/injection, schedule: Q#A X014 (ip), vehicle: carboxymethylcellulose (CMC)) is 17 % of control; the T/C (dose: 262.0 micrograms/kg/injection, schedule: Q01DX007 (ip), vehicle: carboxymethylcellulose (CMC)) was 69 % of control. Also, the T/C was 98 % of control (dose: 525.0 micrograms/kg/injection, schedule: Q01DX007 (ip), vehicle: carboxymethylcellulose (CMC)); 84 % of control (dose: 1050.0 micrograms/kg/injection, schedule: Q01DX007 (ip), vehicle: carboxymethylcellulose (CMC)); 49 % of control (dose: 2100.0 micrograms/kg/injection, schedule: Q01DX007 (ip), vehicle: carboxymethylcellulose (CMC)).
Take `CC#CC(C)(O)CC` (stereo not given): the T/C was 79 % of control (dose: 77.0 mg/kg/injection, schedule: Q#A X014 (ip), vehicle: methylcellulose (MC)); 75 % of control (dose: 115.5 mg/kg/injection, schedule: Q#A X014 (ip), vehicle: methylcellulose (MC)); 51 % of control (dose: 175.0 mg/kg/injection, schedule: Q#A X014 (ip), vehicle: methylcellulose (MC)); 44 % of control (dose: 212.5 mg/kg/injection, schedule: Q#A X014 (ip), vehicle: methylcellulose (MC)).
In the case of `CCCn1cnc2c(=S)nc[nH]c21`, the T/C runs as follows: (dose: 43.0 mg/kg/injection, schedule: Q01DX007 (ip), vehicle: carboxymethylcellulose (CMC)) 75 % of control; (dose: 61.0 mg/kg/injection, schedule: Q01DX007 (ip), vehicle: carboxymethylcellulose (CMC)) 44 % of control; (dose: 93.0 mg/kg/injection, schedule: Q01DX007 (ip), vehicle: carboxymethylcellulose (CMC)) 35 % of control; (dose: 140.0 mg/kg/injection, schedule: Q01DX007 (ip), vehicle: carboxymethylcellulose (CMC)) 28 % of control.
On to `C[C@H](N)C(=O)N[C@@H]1[C@H]2C(=C(O)C[C@@H](O)[C@@H]2O)C(=O)O[C@@H]1C`, for which the T/C was 66 % of control (dose: 250.0 mg/kg/injection, schedule: Q01DX007 (ip), vehicle: carboxymethylcellulose (CMC)); 42 % of control (dose: 500.0 mg/kg/injection, schedule: Q01DX007 (ip), vehicle: carboxymethylcellulose (CMC)); 12 % of control (dose: 1000.0 mg/kg/injection, schedule: Q01DX007 (ip), vehicle: carboxymethylcellulose (CMC)).
In the case of `NC1(C(=O)O)CCCC1`, the T/C by setting is: (dose: 4.62 mg/kg/injection, schedule: Q#A X014 (ip), vehicle: carboxymethylcellulose (CMC)) 86 % of control; (dose: 6.25 mg/kg/injection, schedule: Q#A X014 (ip), vehicle: carboxymethylcellulose (CMC)) 72 % of control; (dose: 9.25 mg/kg/injection, schedule: Q#A X014 (ip), vehicle: carboxymethylcellulose (CMC)) 101 % of control; (dose: 12.5 mg/kg/injection, schedule: Q#A X014 (ip), vehicle: carboxymethylcellulose (CMC)) 101 % of control; (dose: 15.0 mg/kg/injection, schedule: Q01DX007 (ip), vehicle: water) 75 % of control; (dose: 18.5 mg/kg/injection, schedule: Q#A X014 (ip), vehicle: carboxymethylcellulose (CMC)) 77 % of control. Besides, the T/C is 75 % of control (dose: 25.0 mg/kg/injection, schedule: Q01DX007 (ip), vehicle: saline); 75 % of control (dose: 25.0 mg/kg/injection, schedule: Q#A X014 (ip), vehicle: carboxymethylcellulose (CMC)); 78 % of control (dose: 30.0 mg/kg/injection, schedule: Q01DX007 (ip), vehicle: water); 56 % of control (dose: 33.0 mg/kg/injection, schedule: Q#A X014 (ip), vehicle: saline); 50 % of control (dose: 37.0 mg/kg/injection, schedule: Q#A X014 (ip), vehicle: carboxymethylcellulose (CMC)); 64 % of control under setting [1]. Also, the T/C (dose: 50.0 mg/kg/injection, schedule: Q#A X014 (ip), vehicle: carboxymethylcellulose (CMC)) is 35 % of control; the T/C (dose: 50.0 mg/kg/injection, schedule: Q#A X014 (ip), vehicle: saline) was 44 % of control; the T/C (dose: 60.0 mg/kg/injection, schedule: Q01DX007 (ip), vehicle: water) was 35 % of control; the T/C (dose: 62.0 mg/kg/injection, schedule: Q01DX007 (ip), vehicle: saline) is 61 % of control; the T/C (dose: 75.0 mg/kg/injection, schedule: Q#A X014 (ip), vehicle: saline) was 23 % of control; the T/C (dose: 100.0 mg/kg/injection, schedule: Q01DX007 (ip), vehicle: saline) is 47 % of control. Further, the T/C (dose: 120.0 mg/kg/injection, schedule: Q01DX007 (ip), vehicle: water) was 22 % of control; the T/C (dose: 125.0 mg/kg/injection, schedule: Q01DX007 (ip), vehicle: saline) is 30 % of control; the T/C under setting [2] was 22 % of control.
Regarding `OCC(F)(F)C(F)(F)C(F)(F)F`, the T/C reads like this: (dose: 222.0 mg/kg/injection, schedule: Q01DX007 (ip), vehicle: other) 56 % of control; (dose: 250.0 mg/kg/injection, schedule: Q01DX007 (ip), vehicle: saline) 74 % of control; (dose: 333.0 mg/kg/injection, schedule: Q01DX007 (ip), vehicle: other) 82 % of control; (dose: 500.0 mg/kg/injection, schedule: Q01DX007 (ip), vehicle: other) 56 % of control; (dose: 750.0 mg/kg/injection, schedule: Q01DX007 (ip), vehicle: other) 90 % of control.
As for `CC(=O)NNC(=O)c1ccccn1`, the T/C runs as follows: (dose: 37.5 mg/kg/injection, schedule: Q01DX007 (ip), vehicle: water) 112 % of control; (dose: 75.0 mg/kg/injection, schedule: Q01DX007 (ip), vehicle: water) 104 % of control; under setting [3], 89 % of control; under setting [4], 98 % of control.
